According to ChEMBL document CHEMBL4145544, “Discovery and optimization of 1-(1H-indol-1-yl)ethanone derivatives as CBP/EP300 bromodomain inhibitors for the treatment of castration-resistant prostate cancer” (Eur J Med Chem, 2018):
The source made the active and inactive calls. The rule behind the calls is not given here.

These molecules were tested against T1, CREB-binding protein (Homo sapiens, UniProt Q92793) (assay: Inhibition of biotinylated-H4KAc4 binding to human His6-tagged CBP (R1081 to G1197 residues) expressed in Escherichia coli BL21(DE3) after 2.5 hrs by luminescence-based AlphaScreen assay). Conditions: not given.

Row | Structure (SMILES) | IC50 [µM]
1 | CC(=O)n1cc(C(=O)Nc2cc(C(=O)O)cc(-c3ccco3)c2)c2ccccc21 | 0.65
2 | COc1ccc2c(c1)c(C(=O)Nc1cc(C(=O)O)cc(-c3cnn(C)c3)c1)cn2C(C)=O | 0.16
3 | CC(=O)n1cc(C(=O)Nc2cc(C(=O)O)ccc2F)c2ccccc21 | 0.77

What follows are molecules tested on LNCaP C4-2B (assay: Anticlonogenic activity against human C4-2B cells after 14 days by crystal violet staining based assay). Conditions: not given.
Assay type: functional, cell-based

Row | Structure (SMILES) | Activity
4 | COc1ccc2c(c1)c(C(=O)Nc1cc(C(=O)O)cc(-c3cnn(C)c3)c1)cn2C(C)=O | inactive

Each molecule was assayed against T1, CREB-binding protein (assay: Binding affinity to human His6-tagged CBP (R1081 to G1197 residues) expressed in Escherichia coli BL21(DE3) assessed as change in melting temperature at 200 uM after 30 mins by SYPRO orange dye based fluorescence assay). Conditions: not given.

Row | Structure (SMILES) | ΔTm [°C]
5 | COc1ccc2c(c1)c(C(=O)Nc1cc(C(=O)O)cc(-c3cnn(C)c3)c1)cn2C(C)=O | 5.7

The molecules below were run against T2, Histone acetyltransferase KAT2B (Homo sapiens, UniProt Q92831) (assay: Binding affinity to human His6-tagged PCAF (G715 to D831 residues) expressed in Escherichia coli BL21(DE3) assessed as change in melting temperature at 200 uM after 30 mins by SYPRO orange dye based fluorescence assay). Conditions: not given.
Target sequence in this assay (Q92831 whole entry, looked up, the tested form may be a part): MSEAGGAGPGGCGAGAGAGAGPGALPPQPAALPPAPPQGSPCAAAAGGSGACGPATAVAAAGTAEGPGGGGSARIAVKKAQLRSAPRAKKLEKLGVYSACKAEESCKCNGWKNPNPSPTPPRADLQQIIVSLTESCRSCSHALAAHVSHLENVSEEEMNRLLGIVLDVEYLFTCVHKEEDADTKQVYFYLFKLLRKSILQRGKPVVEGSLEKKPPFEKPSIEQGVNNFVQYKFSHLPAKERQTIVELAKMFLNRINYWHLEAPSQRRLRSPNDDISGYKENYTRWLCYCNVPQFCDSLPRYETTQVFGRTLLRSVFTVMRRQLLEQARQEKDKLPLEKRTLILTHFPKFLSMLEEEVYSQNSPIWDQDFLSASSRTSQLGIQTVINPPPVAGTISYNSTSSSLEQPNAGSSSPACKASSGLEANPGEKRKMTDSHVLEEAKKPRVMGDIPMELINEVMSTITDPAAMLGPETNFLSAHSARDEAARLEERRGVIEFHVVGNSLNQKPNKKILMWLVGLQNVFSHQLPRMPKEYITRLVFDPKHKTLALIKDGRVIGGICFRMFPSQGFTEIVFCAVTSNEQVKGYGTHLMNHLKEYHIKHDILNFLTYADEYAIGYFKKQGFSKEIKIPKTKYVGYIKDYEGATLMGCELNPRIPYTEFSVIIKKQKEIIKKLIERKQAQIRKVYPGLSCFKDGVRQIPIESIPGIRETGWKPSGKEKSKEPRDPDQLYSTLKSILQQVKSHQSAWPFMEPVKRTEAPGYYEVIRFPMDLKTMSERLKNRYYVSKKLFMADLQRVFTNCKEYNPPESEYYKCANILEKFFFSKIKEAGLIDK

Row | Structure (SMILES) | ΔTm [°C]
6 | COc1ccc2c(c1)c(C(=O)Nc1cc(C(=O)O)cc(-c3cnn(C)c3)c1)cn2C(C)=O | -1.5

The molecules below were run against T3, Histone acetyltransferase p300 (Homo sapiens, UniProt Q09472) (assay: Binding affinity to human His6-tagged EP300 (A1040 to G1161 residues) expressed in Escherichia coli BL21(DE3) assessed as change in melting temperature at 200 uM after 30 mins by SYPRO orange dye based fluorescence assay). Conditions: not given.

Row | Structure (SMILES) | ΔTm [°C]
7 | COc1ccc2c(c1)c(C(=O)Nc1cc(C(=O)O)cc(-c3cnn(C)c3)c1)cn2C(C)=O | 5.7

Each molecule was assayed against T3, Histone acetyltransferase p300 (assay: Inhibition of biotinylated-H4KAc4 binding to human His6-tagged EP300 (A1040 to G1161 residues) expressed in Escherichia coli BL21(DE3) after 2.5 hrs by luminescence-based AlphaScreen assay). Conditions: not given.

Row | Structure (SMILES) | IC50 [µM]
8 | CC(=O)n1cc(C(=O)Nc2cc(C(=O)O)cc(-c3ccco3)c2)c2ccccc21 | 0.97
9 | COc1ccc2c(c1)c(C(=O)Nc1cc(C(=O)O)cc(-c3cnn(C)c3)c1)cn2C(C)=O | 0.51
10 | CC(=O)n1cc(C(=O)Nc2cc(C(=O)O)ccc2F)c2ccccc21 | 4.45

These molecules were tested against T4, Transcription initiation factor TFIID subunit 1 (Homo sapiens, UniProt P21675) (assay: Binding affinity to human His6-tagged TAF-1 (R1377 to D1503 residues) expressed in Escherichia coli BL21(DE3) assessed as change in melting temperature at 200 uM after 30 mins by SYPRO orange dye based fluorescence assay). Conditions: not given.
T4 sequence (P21675 whole entry, the tested form may be a part): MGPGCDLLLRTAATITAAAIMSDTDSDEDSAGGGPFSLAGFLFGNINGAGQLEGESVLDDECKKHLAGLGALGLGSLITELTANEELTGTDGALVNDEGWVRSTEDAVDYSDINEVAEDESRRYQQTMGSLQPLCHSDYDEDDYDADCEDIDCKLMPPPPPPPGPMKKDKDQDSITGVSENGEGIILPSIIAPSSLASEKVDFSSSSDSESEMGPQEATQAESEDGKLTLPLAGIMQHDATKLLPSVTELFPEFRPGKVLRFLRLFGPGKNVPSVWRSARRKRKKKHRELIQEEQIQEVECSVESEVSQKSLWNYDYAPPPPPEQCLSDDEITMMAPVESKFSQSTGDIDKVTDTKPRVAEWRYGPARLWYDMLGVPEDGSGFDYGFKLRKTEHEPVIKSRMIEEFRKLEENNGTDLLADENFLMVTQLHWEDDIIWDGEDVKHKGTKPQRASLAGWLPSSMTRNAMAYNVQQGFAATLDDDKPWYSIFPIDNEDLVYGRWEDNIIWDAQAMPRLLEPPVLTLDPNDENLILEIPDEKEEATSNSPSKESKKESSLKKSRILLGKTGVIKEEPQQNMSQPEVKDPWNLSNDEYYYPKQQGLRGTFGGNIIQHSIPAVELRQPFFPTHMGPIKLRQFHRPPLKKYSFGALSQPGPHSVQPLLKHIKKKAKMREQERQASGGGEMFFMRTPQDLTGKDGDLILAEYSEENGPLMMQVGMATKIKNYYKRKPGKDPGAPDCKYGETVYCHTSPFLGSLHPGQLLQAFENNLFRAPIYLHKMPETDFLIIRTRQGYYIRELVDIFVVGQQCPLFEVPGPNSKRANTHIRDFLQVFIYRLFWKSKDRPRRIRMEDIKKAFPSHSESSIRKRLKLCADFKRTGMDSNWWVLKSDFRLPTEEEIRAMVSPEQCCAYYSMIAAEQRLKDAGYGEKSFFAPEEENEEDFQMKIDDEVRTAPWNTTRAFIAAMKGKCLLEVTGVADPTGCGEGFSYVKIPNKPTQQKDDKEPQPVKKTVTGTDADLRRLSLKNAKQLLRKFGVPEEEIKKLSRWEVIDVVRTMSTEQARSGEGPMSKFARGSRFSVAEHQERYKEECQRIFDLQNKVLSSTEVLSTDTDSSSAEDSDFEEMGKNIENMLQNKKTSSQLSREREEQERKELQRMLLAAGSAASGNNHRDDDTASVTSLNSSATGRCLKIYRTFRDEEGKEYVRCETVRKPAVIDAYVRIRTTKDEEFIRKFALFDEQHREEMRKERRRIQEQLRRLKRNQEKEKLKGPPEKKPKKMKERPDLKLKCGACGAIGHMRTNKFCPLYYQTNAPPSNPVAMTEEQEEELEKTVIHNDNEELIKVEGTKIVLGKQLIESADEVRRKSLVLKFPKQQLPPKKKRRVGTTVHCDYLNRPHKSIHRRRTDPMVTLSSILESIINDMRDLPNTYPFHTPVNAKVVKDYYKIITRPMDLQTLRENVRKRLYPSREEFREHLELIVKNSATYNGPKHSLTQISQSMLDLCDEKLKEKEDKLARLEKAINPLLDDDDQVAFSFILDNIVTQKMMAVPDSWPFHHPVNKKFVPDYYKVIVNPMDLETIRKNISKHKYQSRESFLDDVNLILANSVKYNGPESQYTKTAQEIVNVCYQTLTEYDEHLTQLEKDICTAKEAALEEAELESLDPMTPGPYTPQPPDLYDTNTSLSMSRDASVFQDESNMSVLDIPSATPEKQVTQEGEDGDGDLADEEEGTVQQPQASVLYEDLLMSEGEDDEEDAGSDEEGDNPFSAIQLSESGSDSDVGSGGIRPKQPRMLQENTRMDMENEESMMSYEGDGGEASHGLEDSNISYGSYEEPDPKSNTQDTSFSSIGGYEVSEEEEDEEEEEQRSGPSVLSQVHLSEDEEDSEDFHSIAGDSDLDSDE

Row | Structure (SMILES) | ΔTm [°C]
11 | COc1ccc2c(c1)c(C(=O)Nc1cc(C(=O)O)cc(-c3cnn(C)c3)c1)cn2C(C)=O | 0.9

These molecules were tested against Transcription intermediary factor 1-alpha (Homo sapiens) (UniProt O15164) (assay: Binding affinity to human His6-tagged TIF-1 (G896 to E1014 residues) expressed in Escherichia coli BL21(DE3) assessed as change in melting temperature at 200 uM after 30 mins by SYPRO orange dye based fluorescence assay). Conditions: not given.

Row | Structure (SMILES) | ΔTm [°C]
12 | COc1ccc2c(c1)c(C(=O)Nc1cc(C(=O)O)cc(-c3cnn(C)c3)c1)cn2C(C)=O | -0.3

Each molecule was assayed on CWR22R. Conditions: not given.

Row | Structure (SMILES) | IC50
13 | COc1ccc2c(c1)c(C(=O)Nc1cc(C(=O)O)cc(-c3cnn(C)c3)c1)cn2C(C)=O | Not Active

The molecules below were run against T5, Bromodomain-containing protein 9 (Homo sapiens, UniProt Q9H8M2) (assay: Inhibition of biotinylated-H4KAc4 binding to human His6-tagged BRD9 (L14 to Q134 residues) expressed in Escherichia coli BL21(DE3) after 2.5 hrs by luminescence-based AlphaScreen assay). Conditions: not given.
T5 sequence (Q9H8M2 whole entry): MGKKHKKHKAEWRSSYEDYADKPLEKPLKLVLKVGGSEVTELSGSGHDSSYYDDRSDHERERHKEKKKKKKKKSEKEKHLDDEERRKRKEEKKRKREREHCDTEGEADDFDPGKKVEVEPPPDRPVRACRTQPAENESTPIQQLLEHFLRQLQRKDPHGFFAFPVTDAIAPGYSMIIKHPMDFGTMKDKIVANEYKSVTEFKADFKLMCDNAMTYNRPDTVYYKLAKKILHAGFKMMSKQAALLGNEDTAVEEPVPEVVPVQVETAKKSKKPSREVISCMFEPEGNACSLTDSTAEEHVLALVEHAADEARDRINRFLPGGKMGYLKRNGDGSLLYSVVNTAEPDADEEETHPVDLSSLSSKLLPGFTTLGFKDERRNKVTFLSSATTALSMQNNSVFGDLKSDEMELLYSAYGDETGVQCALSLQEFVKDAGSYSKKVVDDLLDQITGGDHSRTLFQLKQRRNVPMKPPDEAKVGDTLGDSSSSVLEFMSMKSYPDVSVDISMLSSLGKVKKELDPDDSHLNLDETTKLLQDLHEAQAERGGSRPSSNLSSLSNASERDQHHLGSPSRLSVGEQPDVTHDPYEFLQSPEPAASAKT

Row | Structure (SMILES) | IC50 [µM]
14 | CC(=O)n1cc(C(=O)Nc2cc(C(=O)O)cc(-c3ccco3)c2)c2ccccc21 | > 20
15 | COc1ccc2c(c1)c(C(=O)Nc1cc(C(=O)O)cc(-c3cnn(C)c3)c1)cn2C(C)=O | > 20
16 | CC(=O)n1cc(C(=O)Nc2cc(C(=O)O)ccc2F)c2ccccc21 | > 20

What follows are molecules tested against T6, Bromodomain adjacent to zinc finger domain protein 2B (Homo sapiens, UniProt Q9UIF8) (assay: Binding affinity to human His6-tagged BAZ2B (S1858 to S1972 residues) expressed in Escherichia coli BL21(DE3) assessed as change in melting temperature at 200 uM after 30 mins by SYPRO orange dye based fluorescence assay). Conditions: not given.
T6 sequence (Q9UIF8 whole entry, the tested form may be a part): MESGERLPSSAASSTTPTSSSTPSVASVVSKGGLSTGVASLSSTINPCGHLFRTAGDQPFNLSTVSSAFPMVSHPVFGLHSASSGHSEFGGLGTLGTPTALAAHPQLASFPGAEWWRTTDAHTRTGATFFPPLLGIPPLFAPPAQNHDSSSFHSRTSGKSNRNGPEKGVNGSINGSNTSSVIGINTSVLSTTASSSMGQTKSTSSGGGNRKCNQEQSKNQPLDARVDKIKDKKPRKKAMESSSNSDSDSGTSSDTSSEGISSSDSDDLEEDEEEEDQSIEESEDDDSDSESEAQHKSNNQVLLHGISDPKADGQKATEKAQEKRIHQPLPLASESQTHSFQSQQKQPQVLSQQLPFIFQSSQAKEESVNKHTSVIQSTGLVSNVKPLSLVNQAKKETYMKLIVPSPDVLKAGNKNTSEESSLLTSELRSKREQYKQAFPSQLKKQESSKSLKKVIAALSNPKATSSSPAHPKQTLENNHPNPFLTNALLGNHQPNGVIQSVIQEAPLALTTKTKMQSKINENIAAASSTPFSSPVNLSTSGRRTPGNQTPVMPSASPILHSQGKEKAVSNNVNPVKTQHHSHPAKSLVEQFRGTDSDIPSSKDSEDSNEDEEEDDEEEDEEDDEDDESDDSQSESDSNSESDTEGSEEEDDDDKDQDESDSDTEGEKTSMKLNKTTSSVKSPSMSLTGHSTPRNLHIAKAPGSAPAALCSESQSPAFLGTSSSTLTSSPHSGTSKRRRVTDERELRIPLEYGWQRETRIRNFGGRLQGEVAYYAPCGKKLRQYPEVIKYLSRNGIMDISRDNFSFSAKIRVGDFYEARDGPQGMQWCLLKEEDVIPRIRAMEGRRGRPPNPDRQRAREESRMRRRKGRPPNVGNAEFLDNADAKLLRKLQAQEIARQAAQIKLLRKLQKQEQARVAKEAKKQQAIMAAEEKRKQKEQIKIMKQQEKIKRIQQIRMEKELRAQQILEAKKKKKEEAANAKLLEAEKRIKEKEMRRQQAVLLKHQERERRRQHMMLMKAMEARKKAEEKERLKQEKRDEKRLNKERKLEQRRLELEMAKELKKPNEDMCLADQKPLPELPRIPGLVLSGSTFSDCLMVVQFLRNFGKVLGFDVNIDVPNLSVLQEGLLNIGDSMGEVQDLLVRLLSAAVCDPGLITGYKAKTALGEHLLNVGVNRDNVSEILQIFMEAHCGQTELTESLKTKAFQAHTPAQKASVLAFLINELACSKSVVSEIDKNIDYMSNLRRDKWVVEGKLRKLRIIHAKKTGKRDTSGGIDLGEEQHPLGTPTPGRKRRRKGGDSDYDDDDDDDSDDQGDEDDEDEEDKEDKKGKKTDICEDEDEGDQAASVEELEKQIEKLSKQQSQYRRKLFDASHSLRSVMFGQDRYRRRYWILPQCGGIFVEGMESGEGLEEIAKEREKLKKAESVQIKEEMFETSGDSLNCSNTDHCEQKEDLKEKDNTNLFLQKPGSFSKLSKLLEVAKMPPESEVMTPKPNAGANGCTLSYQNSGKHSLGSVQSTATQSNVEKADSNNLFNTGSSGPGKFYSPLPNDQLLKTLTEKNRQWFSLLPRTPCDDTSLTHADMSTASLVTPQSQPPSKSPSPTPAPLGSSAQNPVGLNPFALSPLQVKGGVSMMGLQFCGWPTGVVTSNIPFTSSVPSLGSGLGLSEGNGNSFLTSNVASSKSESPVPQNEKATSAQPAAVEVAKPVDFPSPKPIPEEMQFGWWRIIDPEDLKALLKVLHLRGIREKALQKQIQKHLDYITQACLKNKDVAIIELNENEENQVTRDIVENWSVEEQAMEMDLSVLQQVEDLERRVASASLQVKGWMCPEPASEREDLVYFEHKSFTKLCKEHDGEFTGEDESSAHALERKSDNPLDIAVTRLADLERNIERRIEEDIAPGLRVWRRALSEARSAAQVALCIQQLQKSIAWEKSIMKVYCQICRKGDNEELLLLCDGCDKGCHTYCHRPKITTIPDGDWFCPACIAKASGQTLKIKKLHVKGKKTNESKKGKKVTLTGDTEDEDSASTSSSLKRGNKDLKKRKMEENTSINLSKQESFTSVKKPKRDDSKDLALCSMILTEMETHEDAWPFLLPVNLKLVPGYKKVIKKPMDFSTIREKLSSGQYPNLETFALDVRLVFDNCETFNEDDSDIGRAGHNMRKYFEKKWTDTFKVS

Row | Structure (SMILES) | ΔTm [°C]
17 | COc1ccc2c(c1)c(C(=O)Nc1cc(C(=O)O)cc(-c3cnn(C)c3)c1)cn2C(C)=O | 1.5

Each molecule was assayed against T7, Bromodomain-containing protein 4 (Homo sapiens, UniProt O60885) (assay: Inhibition of biotinylated-H4KAc4 binding to human His6-tagged BRD4 bromodomain-1 (N44 to E168 residues) expressed in Escherichia coli BL21(DE3) after 2.5 hrs by luminescence-based AlphaScreen assay). Conditions: not given.

Row | Structure (SMILES) | IC50 [µM]
18 | CC(=O)n1cc(C(=O)Nc2cc(C(=O)O)cc(-c3ccco3)c2)c2ccccc21 | 2.19
19 | COc1ccc2c(c1)c(C(=O)Nc1cc(C(=O)O)cc(-c3cnn(C)c3)c1)cn2C(C)=O | > 20
20 | CC(=O)n1cc(C(=O)Nc2cc(C(=O)O)ccc2F)c2ccccc21 | > 20

Each molecule was assayed against T2, Histone acetyltransferase KAT2B (assay: Inhibition of biotinylated-H4KAc4 binding to human His6-tagged PCAF (G715 to D831 residues) expressed in Escherichia coli BL21(DE3) after 2.5 hrs by luminescence-based AlphaScreen assay). Conditions: not given.
Target sequence in this assay (Q92831 whole entry, the tested form may be a part): as the sequence (Q92831 whole entry, looked up, the tested form may be a part) above

Row | Structure (SMILES) | IC50 [µM]
21 | CC(=O)n1cc(C(=O)Nc2cc(C(=O)O)cc(-c3ccco3)c2)c2ccccc21 | > 20
22 | COc1ccc2c(c1)c(C(=O)Nc1cc(C(=O)O)cc(-c3cnn(C)c3)c1)cn2C(C)=O | > 20
23 | CC(=O)n1cc(C(=O)Nc2cc(C(=O)O)ccc2F)c2ccccc21 | > 20

What follows are molecules tested against Bromodomain-containing protein 9 (Homo sapiens) (UniProt Q9H8M2) (assay: Binding affinity to human His6-tagged BRD9 (L14 to Q134 residues) expressed in Escherichia coli BL21(DE3) assessed as change in melting temperature at 200 uM after 30 mins by SYPRO orange dye based fluorescence assay). Conditions: not given.

Row | Structure (SMILES) | ΔTm [°C]
24 | COc1ccc2c(c1)c(C(=O)Nc1cc(C(=O)O)cc(-c3cnn(C)c3)c1)cn2C(C)=O | -0.9

The molecules below were run against T7, Bromodomain-containing protein 4 (assay: Binding affinity to human His6-tagged BRD4 bromodomain-1 (N44 to E168 residues) expressed in Escherichia coli BL21(DE3) assessed as change in melting temperature at 200 uM after 30 mins by SYPRO orange dye based fluorescence assay). Conditions: not given.

Row | Structure (SMILES) | ΔTm [°C]
25 | COc1ccc2c(c1)c(C(=O)Nc1cc(C(=O)O)cc(-c3cnn(C)c3)c1)cn2C(C)=O | 1.1

Each molecule was assayed against T4, Transcription initiation factor TFIID subunit 1 (assay: Inhibition of biotinylated-H4KAc4 binding to human His6-tagged TAF-1 (R1377 to D1503 residues) expressed in Escherichia coli BL21(DE3) after 2.5 hrs by luminescence-based AlphaScreen assay). Conditions: not given.

Row | Structure (SMILES) | IC50 [µM]
26 | CC(=O)n1cc(C(=O)Nc2cc(C(=O)O)cc(-c3ccco3)c2)c2ccccc21 | > 20
27 | COc1ccc2c(c1)c(C(=O)Nc1cc(C(=O)O)cc(-c3cnn(C)c3)c1)cn2C(C)=O | > 20
28 | CC(=O)n1cc(C(=O)Nc2cc(C(=O)O)ccc2F)c2ccccc21 | > 20

The molecules below were run on LNCaP (assay: Antiproliferative activity against human LNCAP cells after 72 hrs by Cell-Titer Glo assay). Conditions: lncap.
Assay type: functional, cell-based

Row | Structure (SMILES) | IC50
29 | COc1ccc2c(c1)c(C(=O)Nc1cc(C(=O)O)cc(-c3cnn(C)c3)c1)cn2C(C)=O | Not Active

These molecules were tested on CWR22R (assay: Anticlonogenic activity against human 22Rv1 cells after 14 days by crystal violet staining based assay). Conditions: not given.
Assay type: functional, cell-based

Row | Structure (SMILES) | Activity
30 | COc1ccc2c(c1)c(C(=O)Nc1cc(C(=O)O)cc(-c3cnn(C)c3)c1)cn2C(C)=O | inactive

These molecules were tested against T8, Transcription intermediary factor 1-alpha (Homo sapiens, UniProt O15164) (assay: Inhibition of biotinylated-H4KAc4 binding to human His6-tagged TIF-1 (G896 to E1014 residues) expressed in Escherichia coli BL21(DE3) after 2.5 hrs by luminescence-based AlphaScreen assay). Conditions: not given.
T8 sequence (O15164 whole entry): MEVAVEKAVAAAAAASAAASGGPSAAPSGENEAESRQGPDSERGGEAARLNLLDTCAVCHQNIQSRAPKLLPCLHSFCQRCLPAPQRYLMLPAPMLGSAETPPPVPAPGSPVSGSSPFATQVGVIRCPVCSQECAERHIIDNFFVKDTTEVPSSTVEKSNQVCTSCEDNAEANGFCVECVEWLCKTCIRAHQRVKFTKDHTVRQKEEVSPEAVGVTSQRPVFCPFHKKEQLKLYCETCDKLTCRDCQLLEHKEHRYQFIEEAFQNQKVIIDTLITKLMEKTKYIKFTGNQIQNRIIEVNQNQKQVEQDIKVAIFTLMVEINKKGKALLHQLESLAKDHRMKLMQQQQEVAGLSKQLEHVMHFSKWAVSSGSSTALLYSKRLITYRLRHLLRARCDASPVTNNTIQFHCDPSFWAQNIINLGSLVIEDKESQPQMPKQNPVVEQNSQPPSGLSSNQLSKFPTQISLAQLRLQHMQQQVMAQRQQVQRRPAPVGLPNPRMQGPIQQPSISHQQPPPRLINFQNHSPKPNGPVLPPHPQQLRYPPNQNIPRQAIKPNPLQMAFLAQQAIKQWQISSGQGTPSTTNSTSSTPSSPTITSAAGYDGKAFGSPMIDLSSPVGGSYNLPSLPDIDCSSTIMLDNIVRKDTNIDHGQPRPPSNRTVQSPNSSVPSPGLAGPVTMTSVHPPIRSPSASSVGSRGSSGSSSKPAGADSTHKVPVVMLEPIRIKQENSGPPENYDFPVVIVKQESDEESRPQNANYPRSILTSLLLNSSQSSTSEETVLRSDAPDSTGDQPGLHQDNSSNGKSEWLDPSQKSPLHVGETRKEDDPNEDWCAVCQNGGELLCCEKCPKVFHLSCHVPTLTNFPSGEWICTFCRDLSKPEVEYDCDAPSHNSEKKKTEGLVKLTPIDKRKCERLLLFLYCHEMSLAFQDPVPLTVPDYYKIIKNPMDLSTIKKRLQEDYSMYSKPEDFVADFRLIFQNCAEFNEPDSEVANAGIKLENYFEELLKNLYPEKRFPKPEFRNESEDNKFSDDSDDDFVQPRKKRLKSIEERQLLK

Row | Structure (SMILES) | IC50 [µM]
31 | CC(=O)n1cc(C(=O)Nc2cc(C(=O)O)cc(-c3ccco3)c2)c2ccccc21 | 10.4
32 | COc1ccc2c(c1)c(C(=O)Nc1cc(C(=O)O)cc(-c3cnn(C)c3)c1)cn2C(C)=O | > 20
33 | CC(=O)n1cc(C(=O)Nc2cc(C(=O)O)ccc2F)c2ccccc21 | > 20

What follows are molecules tested against T6, Bromodomain adjacent to zinc finger domain protein 2B (assay: Inhibition of biotinylated-H4KAc4 binding to human His6-tagged BAZ2B (S1858 to S1972 residues) expressed in Escherichia coli BL21(DE3) after 2.5 hrs by luminescence-based AlphaScreen assay). Conditions: not given.

Row | Structure (SMILES) | IC50 [µM]
34 | CC(=O)n1cc(C(=O)Nc2cc(C(=O)O)cc(-c3ccco3)c2)c2ccccc21 | 1.69
35 | COc1ccc2c(c1)c(C(=O)Nc1cc(C(=O)O)cc(-c3cnn(C)c3)c1)cn2C(C)=O | > 20
36 | CC(=O)n1cc(C(=O)Nc2cc(C(=O)O)ccc2F)c2ccccc21 | > 20
